# From paper PMC1977984 (British Journal of Cancer, 1992)
# Where two headings read alike, the source gives them in different places. Starred links: 1 amine or outer side, 2 acyl side, 3 side chain; linkers in the order of their positions; H or OH if unused. Positions of bridges follow the written chain, without caps; N, C: chain ends. Non-standard residues stand in square brackets, D forms with d. Residues, ends and D or L forms follow the SMILES beside them. Chains are numbered I, II in the order given. Actinocin(9to1) = Cc1c2oc3c(C)ccc(C(=O)[*:1])c3nc-2c(C(=O)[*:2])c(N)c1=O; NMeV = CN[C@H](C(=O)O)C(C)C; Sar = CNCC(=O)O
# Columns and labels:
# [1] = tested on: drug resistant variant of the Ridgway osteogenic sarcoma; set-up: method as in Merry et al., 1991; conditions: in vivo model; ref Merry et al., 1991; cited from earlier work
# [2] = cited from earlier work
# [3] = tested on: human BRO melanoma cells; set-up: method as in Lincke et al., 1990; conditions: parental BRO cell line; ref Lincke et al., 1990; read-out: IC50 for etoposide; cited from earlier work
# [4] = tested on: S1/1.1 cell line; conditions: for Enhancement: S1/1.1, IC50 etoposide alone divided by IC50 with MNTC tamoxifen
# Description: (§1) Br. J. Cancer (1992), 66, 833-839 ? […] Clinical effects and in vitro assessment in p-glycoprotein expressing cell lines N.S.A. Stuart', P. Philip', A.L. Harris', K. Tonkin', S. Houlbrook2, J. Kirk2, E.A. Lien3 & J. Carmichael' 'ICRF Clinical Oncology Unit, Churchill Hospital, Oxford OX3 7LJ; 2MRC Radiobiology Unit, Chilton, Didcot, Oxon; 3Department of Pharmacology and Toxicology, University of Bergen, Bergen, Norway. […] Cytotoxic drug resistance frequently affects a wide range of cytotoxic agents. It is commonly inherent, although it may also be acquired after initial response to cytotoxic drugs. Cell lines exposed in vitro to one cytotoxic drug may also become resistant to a range of structurally and functionally diverse agents. This multidrug resistant (MDR) phenotype is associ- ated with the presence of a 170 kd membrane glycoprotein, the P-glycoprotein (Pgp) (Juliano et al., 1976; Kartner et al., 1983; Riordan et al., 1985) which acts as an energy depen- dent efflux pump (Skovsgaard, 1978). […] Unfor- tunately many cause unacceptable toxicity at levels below those needed to modulate resistance and have therefore not been useful clinically (Ozols et al., 1987). Some encouraging results have however been reported in lymphoid malignan- cies. […] It is widely used in the treatment of breast cancer at doses of 20-40mgday-' and at such doses produces serum levels around 0.5 JiM (Adam et al., 1980; Fabian et al., 1980; Lien et al., 1989). […] Etoposide (VP16-213, Vepesid) is an epipodophyllotoxin derived cytotoxic drug which interferes with the action of the nuclear enzyme topoisomerase II producing lethal single and double stranded DNA breaks (Chen et al., 1984). It has activity in a number of solid tumours and resistance to it is part of the typical MDR phenotype (Endicott et al., 1989). […] The study therefore included patients with a range of relapsed and chemoresistant tumours. […] Patients had ECOG performance scores of 2 or better, had normal renal and hepatic function and had normal peripheral blood counts. […] Correspondence: N.S. Stuart. Received 13 March 1992; and in revised form 8 July 1992. 'PI Macmillan Press Ltd., 1992 Br. J. Cancer (1992), 66, 833-839 834 N.S.A. STUART et al. No formal compliance check was conducted but patients were asked specifically whether they had difficulties taking the correct number of tablets. Oral etoposide was given at a dose of 300mgday-' (150mg two times day-') for the first course. Patients who remained myelosuppressed on day 21 had the dose of etoposide reduced to 200 mg day-' for subse- quent courses. In those who had no significant myelosuppres- sion the dose of etoposide was increased to 400 mg day-'. […] Blood samples were centrifuged and the serum removed and stored at -20?C prior to measurement. […] The methods used have been published previously (Lien et al., 1989; 1987). […] The drugs were detected by being converted to fluorophors by subjecting the effluent of the column to ultra-violet light while passing through a quartz tube. The identity of the analyses was confirmed by liquid chromatography/mass spec- trometry using an on-line mass spectrometer connected to the analytical column (Lien et al., 1988). Serum levels in different patient populations were compared using the Mann-Whitney U-test. Cells and culture conditions Three pairs of cell lines were assessed. Each comprised a wild-type parental cell line and a P-glycoprotein expressing daughter line. The wild-type MCF-7 cell line was derived from a human breast cancer (Soule et al., 1973) while the CHO-KI cell line was derived from Chinese hamster ovaries (CHO).
# [5] = Description: as §1
# [6] = tested on: CHO-KI adrr cell line; conditions: for Enhancement: CHO-KI adrr, IC50 etoposide alone divided by IC50 with MNTC tamoxifen
# Description: as §1
# [7] = tested on: MCF-7 adrr cell line; experiment: cells
# Description: as §1
# [8] = tested on: MCF-7 wt cell line; experiment: cells
# Description: as §1
# [9] = tested on: S1 cell line (SW-1573); experiment: cells; conditions: for Enhancement: S1, IC50 etoposide alone divided by IC50 with MNTC tamoxifen
# Description: as §1
# [10] = tested on: P388/ADR murine leukaemia line; set-up: method as in Ramu et al., 1984; conditions: ref Ramu et al., 1984; cited from earlier work
# [11] = tested on: CHO-KI adrr cell line; set-up: method as in Chatterjee et al., 1990b; conditions: dox resistant CHO-KI adrr line; ref Chatterjee et al., 1990b; cited from earlier work
# [12] = tested on: CHO-KI cell line; set-up: method as in Chatterjee et al., 1990b; conditions: parental CHO-KI line; ref Chatterjee et al., 1990b; cited from earlier work
# [13] = tested on: MCF-7 adrr cell line; set-up: method as in Foster et al., 1988; conditions: ref Foster et al., 1988; cited from earlier work
# [14] = tested on: multidrug resistance in vitro; set-up: method as in earlier work; conditions: ref Chatterjee et al., 1990b; Foster et al., 1988; Ramu et al., 1984; cited from earlier work
# [15] = tested on: CHO-KI cell line; conditions: IC50 etoposide alone divided by IC50 with MNTC tamoxifen
# Description: as §1
# [16] = tested on: Chinese hamster lung (DC3F/ADX) and breast cancer (MCF-7 adrr) cell lines; set-up: method as in Politi et al., 1990; conditions: multidrug resistant mutants; ref Politi et al., 1990; cited from earlier work
# [17] = Homo sapiens, MCF7, 96 h, read-out: IC50 etoposide
smiles,measurement,setting,value
"Cc1c2oc3c(C)ccc(C(=O)N[C@@H]4C(=O)N[C@H](C(C)C)C(=O)N5CCC[C@H]5C(=O)N(C)CC(=O)N(C)[C@@H](C(C)C)C(=O)O[C@@H]4C)c3nc-2c(C(=O)N[C@@H]2C(=O)N[C@H](C(C)C)C(=O)N3CCC[C@H]3C(=O)N(C)CC(=O)N(C)[C@@H](C(C)C)C(=O)O[C@@H]2C)c(N)c1=O [actinomycin- D, actinomycin-D] (I: T[dV]P[Sar][NMeV] / II: T[dV]P[Sar][NMeV]; ester I:1-I:C, II:1-II:C; linker I:N-II:N via Actinocin(9to1))",Resistance of the drug resistant variant,[1],1.5 fold
CC/C(=C(\c1ccccc1)c1ccc(OCCN)cc1)c1ccccc1 [didesmethyltamoxifen],Levels lower than those of the parent compound,[2]; in vivo,60-85%
COc1cc([C@@H]2c3cc4c(cc3[C@@H](O[C@@H]3O[C@@H]5CO[C@@H](C)O[C@H]5[C@H](O)[C@H]3O)[C@H]3COC(=O)[C@H]23)OCO4)cc(OC)c1O [etoposide],IC50,[3],0.016 µM
same,Resistance of the drug resistant variant,[1],5 fold
same,More sensitive than the parental line,"[4]; S1/1.1 versus S1, P<0.01",2 fold
same,Thrombocytopenia,"[5]; human, in vivo, po",No significant thrombocytopenia
same,More resistant than its parental line,[6]; CHO-KI adrr versus CHO-KI,5 fold
same,IC50,[7]; [17],60 µM
same,Resistance to etoposide in comparison to the MCF-7 wild type cell line,[7]; MCF-7 adrr versus MCF-7 wt,60 fold
same,IC50,[8]; [17],0.95 µM
same,IC50,"[9]; Homo sapiens, SW1573, 96 h, read-out: IC50 etoposide",3 µM
CC/C(=C(\c1ccccc1)c1ccc(OCCN(C)C)cc1)c1ccccc1 [tamoxifen],Reversal of adriamycin resistance,[10],partially reversed the resistance
same,Enhancement of dox cytotoxicity,[11],16 fold
same,Serum levels,"[2]; after 9 days on 260 mg of tamoxifen twice a day, ref Trump et al., 1991",6.1 µM
same,Serum levels,"[2]; continuing tamoxifen 480 mg day-1 indefinitely, ref Stuart et al., 1991",around 4 microM
same,Steady state serum levels,"[2]; standard dose tamoxifen 20-40 mg day-1, after 4 weeks, ref Adam et al., 1980, Fabian et al., 1980, Lien et al., 1989",0.25 to 1.0 µM
same,"Serum levels, plateau","[2]; tamoxifen 160 mg three times a day, after 10 days, ref Stuart et al., 1991",around 4 microM
same,Serum levels,"[2]; tamoxifen doses of 20-40 mg day-1 in breast cancer, ref Adam et al., 1980, Fabian et al., Lien et al., 1989",around 0.5 microM
same,Enhancement of dox cytotoxicity,[12],4.8 fold
same,Reversal of adriamycin and vinblastine resistance,[13],partial reversal
same,Levels sufficient to modulate multidrug resistance in vitro,[14],3-10 JAM
same,Enhancement,[15],1.0
same,Enhancement,[15]; listed as Tamoxifen,no significant effect
same,Enhancement,[4],0.9
same,Enhancement,[4]; listed as Tamoxifen,no significant effect
same,Neurological symptoms: Severe/v. severe (number of patients),"[5]; tamoxifen 480 mg day-1, total 10 patients",0
same,Neurological symptoms: Severe/v. severe (number of patients),"[5]; tamoxifen 720 mg day-1, total 16 patients",1 (6%)
same,Enhancement,[6],0.85
same,Enhancement,[6]; listed as Tamoxifen,no significant effect
same,Enhancement,"[7]; MCF-7 adrr, IC50 etoposide alone divided by IC50 with MNTC tamoxifen",0.7
same,Enhancement,"[8]; MCF-7 wt, IC50 etoposide alone divided by IC50 with MNTC tamoxifen",1.2
same,Enhancement,[9],0.9
same,Enhancement,[9]; listed as Tamoxifen,no significant effect
COc1ccc(CCN(C)CCCC(C#N)(c2ccc(OC)c(OC)c2)C(C)C)cc1OC (stereo not drawn) [verapamil],Effect on etoposide resistance,[16],3-4 fold
same,Enhancement (reversal of resistance to vincristine),[16],11-125 fold
CC[C@]1(O)C[C@H]2CN(CCc3c([nH]c4ccccc34)[C@@](C(=O)OC)(c3cc4c(cc3OC)N(C=O)[C@H]3[C@@](O)(C(=O)OC)[C@H](OC(C)=O)[C@]5(CC)C=CCN6CC[C@]43[C@@H]65)C2)C1 [vincristine],Resistance of the drug resistant variant,[1],3.5 fold
